Assay [1] deals with Tie2 in lung, kidney, liver homogenates. In words: in vivo Tie2 phosphorylation in liver, lungs, kidneys. The arrangement: species or system mouse. The method, then: Tumor-free mice were treated for 1 week with either vehicle, VT (250 ng/2 days), SU (60 mg/kg/day), or VT+SU and then sacrificed 5 h after their last doses of treatment. Tissue homogenates derived from EC-rich organs (livers, lungs, kidneys) were subjected to Tie2 immunoprecipitation and then immunoblotted for phosphorylated Tie2 (Fig8: ‘p-Tie2’) or total Tie2 (Fig8: ‘Tie2’).
Figure 8 In vivo Vasculotide treatments: effects on Tie2 receptor phosphorylation in vascular-rich organs (liver, lungs, and kidneys) • Healthy non-tumor-bearing mice (n = 8–9 per group) were treated for 1 week with vehicle (Veh); Vasculotide 250 ng/2 days IP (VT); sunitinib 60 mg/kg/day PO (SU); or VT + SU. Tie2 immunoprecipitates from lung, kidney, or liver homogenates were pooled from two mice per treatment group and immunoblotted with an anti-Tie2 antibody (‘Tie2’) or an anti-phosphotyrosine antibody (‘p-Tie2’). • Densitometry analysis of immunoblots from (A). pTie2/Tie2 ratios were internally normalized to the vehicle group within each blot. Means ± SEM and P values (unpaired t-tests) are depicted. Source data are available online for this figure.
5. Bioluminescence imaging (BI) of tumor burden
For in vivo BI: Mice were injected intraperitoneally with 150mg/kg luciferin (Promega) 10 minutes prior to and anesthetized with isofluorane just before luminescent pseudocolor imaging (uniform settings: CCD camera locked at -105 °C, exposure=60s, f/1, subject size=1.5cm, bin=8, FOV=23.2cm, full image correction) using the IVIS 200 Imaging System (Caliper/PerkinElmer). Using the Living Image software (v2.50.1, Xenogen), weekly images were analyzed under uniform color range on grayscale photographic overlay. Total fluxes (photons/sec) were quantified within consistent regions of interest and statistically compared ideally at a timepoint before any deaths have occurred. […]
Quantification procedure involved visual survey of entire tissue sections and tallying of DAB-stained metastatic nodules sizes (# cells) at 20-40X on a Leica DM LB2 Microscope. […]

Assay [2] has as its system advanced metastatic breast cancer. The conditions noted are these: monotherapy or combined with chemotherapies; ref Ebos & Kerbel, 2011; Mackey et al, 2012; cited from earlier work. The source says: These clinical results were recently replicated in a preclinical model of postsurgical advanced MBC (Guerin et al, [2013]). As discussed previously (Guerin et al, [2013]), primary and secondary tumors may have divergent responses to anti-angiogenic ...

The subject of assay [3] is tumor cells across dermal HMVECs. In words: modified Boyden chamber, TC-CM stimulated tumor cell migration. Type of assay: cell-based, human. The settings on record: Fig4B; for TC migration in presence of TC-CM: 20 ng/mL VT or 400 ng/mL Ang1 vs PBS, paired t-test, n = 6 experimental replicates; for inhibition of TC migration, on average: 20 ng/mL VT. As for the experimental part:
To investigate this possibility in vitro, we performed modified Boyden chamber assays where we stimulated ECs with tumor cell-conditioned media (TC-CM)—that is, supplement-reduced EC growth media containing all the cytokines naturally secreted by LM2-4^luc, SN12^luc, or HT29^luc cells over 30 hours of hypoxic incubation (1% O2).
Meta-analyses of treatment effects on dextran permeability (A) and tumor cell migration (B), where each datapoint represents the mean of an independent experiment, averaged over 2–3 biological replicates (inserts) per treatment group and normalized internally within that same experiment.
Endothelial cells (ECs) were grown on cell culture inserts with uncoated 8-μm-pore PET filter membranes to 100% confluency. See Supplementary Fig S4 for detailed timelines. […] Permeability assays: A total of 100 μg of FITC-dextran (Sigma FD-20S) was dispensed into the upper chamber media. After 30 min of thrombin stimulation or 4–6 h of TC-CM stimulation, FITC fluorescence (ex/em = 490/520 nm) was measured from a 50 μl sample of the lower chamber media. Tumor cell extravasation assays: A total of 4 × 10^4 TCs freshly labeled with CellTracker™ Red CMPTX (Invitrogen C34552: ex/em = 577/602 nm) were seeded into each insert. Where EDTA was used in the permeability assay, the assay media was changed to remove EDTA before introducing TCs. After a 15- to 30-h incubation, the ECs and non-migrated TCs above insert membranes were removed with a cotton swab, whereas migrated/‘extravasated’ TCs and ECs below insert membranes were fixed in 4% PFA. Fixed membranes were mounted onto slides with DAPI stain. CMPTX fluorescence from migrated TCs was then quantified from 10× microscopy images using a MATLAB (MathWorks, Natick, MA, USA) script; five images (technical replicates) were analyzed per insert.
TCs were cultured in DMEM High Glucose basal media supplemented with 5% FBS and grown humidified incubators at 37 °C, 21%O2 and 5%CO2 unless otherwise specified. LM2-4 luc is a highly metastatically aggressive variant of the human breast carcinoma MDA-MB-231 cell line (derived through serial in vivo selection of lung metastases from orthotopic implantations in immunodeficient mice) that has been transfected with a firefly luciferase vector (Man et al, 2007; Ebos et al, 2009). HT29luc is a human colon carcinoma cell line also transfected with the luciferase gene (Hackl et al, 2013). SN12luc refers to a luciferase-tagged and highly metastatic clone of a human renal cell carcinoma cell line, SN12-

The source of these data is publication PMC4459817, “Vasculotide reduces endothelial permeability and tumor cell extravasation in the absence of binding to or agonistic activation of Tie2” (EMBO Molecular Medicine, 2015).

As for `CCN(CC)CCNC(=O)c1c(C)[nH]c(/C=C2\C(=O)Nc3ccc(F)cc32)c1C` [sunitinib, reference compound], the “Tie2 phosphorylation, sunitinib effect” value in assay [1] (SU 60 mg/kg/day, stated in Discussion) is reported as “inhibition of Tie2 phosphorylation”. Moreover, the “phase III clinical trial outcome” value in assay [2] is recorded as “repeatedly failed in multiple phase III clinical trials”.

As to “CHHHRHSF [Vasculotide, 4-armed maleimide-functionalized polyethylene glycol (PEG) backbone to link together four cysteine-capped T7 peptides, that is, CHHHRHSF]”, the “TC migration in presence of TC-CM” value in assay [3] is listed as “P = 0.10 for VT”. Further, the “inhibition of TC migration, on average” value in assay [3] (LM2-4luc-conditioned media) is given as −43%; in assay [3] (SN12luc-conditioned media), −23%. Moreover, the “ratio of phosphorylated Tie2 relative to total Tie2 (pTie2/Tie2)” value in assay [1] (1 week, VT 250 ng/2 days IP, SU 60 mg/kg/day PO or VT + SU, liver, lungs, kidneys, n = 8–9, Fig8) is “did not increase the ratio of phosphorylated Tie2 relative to total Tie2”. The “lung-specific pTie2/Tie2 vs. vehicle” value in assay [1] (VT 250 ng/2 days IP, 1 week, unpaired t-test, Fig8) is recorded as “significantly lower”.

B1: recombinant human Ang1 (rhAng1) (ligand, UniProt Q15389 16-498, looked up)
chain: HIGCSNQRRSPENSGRRYNRIQHGQCAYTFILPEHDGNCRESTTDQYNTNALQRDAPHVEPDFSSQKLQHLEHVMENYTQWLQKLENYIVENMKSEMAQIQQNAVQNHTATMLEIGTSLLSQTAEQTRKLTDVETQVLNQTSRLEIQLLENSLSTYKLEKQLLQQTNEILKIHEKNSLLEHKILEMEGKHKEELDTLKEEKENLQGLVTRQTYIIQELEKQLNRATTNNSVLQKQQLELMDTVHNLVNLCTKEGVLLKGGKREEEKPFRDCADVYQAGFNKSGIYTIYINNMPEPKKVFCNMDVNGGGWTVIQHREDGSLDFQRGWKEYKMGFGNPSGEYWLGNEFIFAITSQRQYMLRIELMDWEGNRAYSQYDRFHIGNEKQNYRLYLKGHTGTAGKQSSLILHGADFSTKDADNDNCMCKCALMLTGGWWFDACGPSNLNGMFYTAGQNHGKLNGIKWHYFKGPSYSLRSTTMMIRPLDF
notes: angiopoietin-1, human, recombinant; also called angiopoietin-1; source: bought: R&D Systems (named for the Boyden chamber experiments)
With B1, the “TC migration in presence of TC-CM” value in assay [3] is “P < 0.05 for Ang1”.
